test system: Staphylococcus aureus or Streptococcus species; experiment: Murine Assay: in vivo antimicrobial activity, survival of mice infected intraperitoneally with bacteria; conditions: not given
Protocol: Antimicrobial activity was tested in vivo using the Murine Assay procedure. Groups of female mice (six mice of 18-20 grams each) were injected intraperitoneally with bacteria which were thawed just prior to use and suspended in brain heart infusion with 4% brewers yeast (Staphylococcus aureus) or brain heart infusion (Streptococcus species). Antibiotic treatment at six dose levels per drug was administered one hour and five hours after infection by either oral intubation or subcutaneous routes. Survival was observed daily for six days. ED50 values based on mortality ratios were calculated using probit analysis. The subject compounds are compared against well-known antimicrobials vancomycin and U-100592 as controls. See “Upjohn Oxazolidinone Antibacterial Agent”, posters presented at the 35th Interscience Conference on Antimicrobial Agents and Chemotherapy.

SMILES	ED50 [mg/kg]
COC(=O)N1CC=C(c2ccc(N3C[C@H](CNC(C)=O)OC3=O)cc2)CC1 [Example 62, (S)-(−)-4-[4-[5-[(Acetylamino)methyl]-2-oxo-3-oxazolidinyl]phenyl]-3,6-dihydro-1(2H)-pyridinecarboxylic acid methyl ester]	12
COC(=O)N1CC(c2ccc(N3C[C@H](CNC(C)=O)OC3=O)cc2F)C1 [Example 83, (S)-N-[[3-[3-Fluoro-4-[1-(methoxycarbonyl)-3-azetidinyl]phenyl]-2-oxo-5-oxazolidinyl]methyl]acetamide]	7.5

same assay, conditions: Table 1; female mice; treatment 1 h and 5 h after infection, oral intubation or subcutaneous; survival over six days; probit analysis of mortality ratios

SMILES	ED50 [mg/kg]
CC(=O)NC[C@H]1CN(c2ccc(C3(C)CN(CC#N)C3)c(F)c2)C(=O)O1 [Example 12, (S)-N-[[3-[3-Fluoro-4-[1-(cyanomethyl)-3-(3-methyl) -azetidinyl]-phenyl]-2-oxo-5-oxazolidinyl]methyl]-acetamide]	20.00
CC(=O)NC[C@H]1CN(c2ccc(C3=CCN(C(=O)CO)CC3)c(F)c2)C(=O)O1 [Example 40, (S)-(−)-N-[[3-[4-[1-(Hydroxyacetyl)-3,6-dihydro-2H-pyridin-4-yl]-3-fluoropheny]-2-oxo-5-oxazolidinyl]methyl]acetamide]	1.00
CC(=O)NC[C@H]1CN(c2ccc(C3=CCOCC3)c(F)c2)C(=O)O1 [Example 47, (S)-(−)-N-[[3-[4-(3,6-Dihydro-2H-pyran-4-yl)-3-fluoropheny]-2-oxo-5-oxazolidinyl]methyl]acetamide]	7.10
CC(=O)NC[C@H]1CN(c2ccc(C3(C)CN(c4ncc([N+](=O)[O-])s4)C3)c(F)c2)C(=O)O1 [Example 13, (S)-N-[[3-[3-Fluoro-4-[1-(5-nitro-2-thiazolyl)-3-(3-methyl) -azetidinyl]-phenyl]-2-oxo-5-oxazolidinyl]methyl]-acetamide]	>10.00
CC(=O)NC[C@H]1CN(c2ccc(C3(C)CN(CCF)C3)c(F)c2)C(=O)O1 [Example 11, (S)-N-[[3-[3-Fluoro-4-[1-(2-fluoroethyl)-3-(3-methyl) -azetidinyl]-phenyl]-2-oxo-5-oxazolidinyl]methyl]-acetamide]	>20.00
COC(=O)N1CC(C)(c2ccc(N3C[C@H](CNC(C)=O)OC3=O)cc2F)C1 [Example 3]	5.00
CC(=O)NC[C@H]1CN(c2ccc(C3(C)CN(C(=O)C(Cl)Cl)C3)c(F)c2)C(=O)O1 [Example 6, (S)-N-[[3-[3-Fluoro-4-[1-(dichloroacetyl)-3-(3-methyl) -azetidinyl]-phenyl]-2-oxo-5-oxazolidinyl]methyl]-acetamide]	>20.00

same assay, conditions: Table 1; female mice; treatment 1 h and 5 h after infection, oral intubation or subcutaneous; survival over six days; probit analysis of mortality ratios; read-out: ED50

SMILES	ED50 [mg/kg]
CC(=O)NC[C@H]1CN(c2ccc(C3CCN(CCF)CC3)c(F)c2)C(=O)O1 [Example 28, (S)-(−)-N-[[3-[4-[1-(2-Fluoroethyl)-4-piperidinyl]-3-fluorophenyl]-2-oxo-5-oxazolidinyl]methyl]acetamide]	15.3
CC(=O)NC[C@H]1CN(c2ccc(C3CCN(C(=O)CO)CC3)c(F)c2)C(=O)O1 [Example 22, (S)-(−)-N-[[3-[4-[1-(Hydroxyacetyl)-4-piperidinyl]-3-fluorophenyl]-2-oxo-5-oxazolidinyl]methyl]acetamide]	2.3
CC(=O)NC[C@H]1CN(c2cc(F)c(C3CCN(C(=O)CO)CC3)c(F)c2)C(=O)O1 [Example 37, (S)-(−)-N-[[3-[4-[1-(Hydroxyacetyl)-4-piperidinyl]-3,5-difluorophenyl]-2-oxo-5-oxazolidinyl]methyl]acetamide]	8.7
CC(=O)NC[C@H]1CN(c2ccc(C3CCN(C(=O)CO)C3)c(F)c2)C(=O)O1 (stereo partly drawn) [Example 44, (5S)-N-[[3-[3-Fluoro-4-[1-(hydroxyacetyl)-3-pyrrolidinyl]phenyl]-2-oxo-5-oxazolidinyl]methyl]acetamide]	5
CC(=O)NC[C@H]1CN(c2ccc(C3CCN(C(=O)COC(C)=O)CC3)c(F)c2)C(=O)O1 [Example 34, (S)-(−)-N-[[2-Oxo-3-[3-fluoro-4-[1-[(acetoxy)acetyl]-4-piperidinyl]phenyl]-5-oxazolidinyl]methyl]acetamide]	6.3
O=C(NC[C@H]1CN(c2ccc(C3CCN(C(=O)CO)CC3)c(F)c2)C(=O)O1)C(Cl)Cl [Example 33, (S)-(−)-2,2-Dichloro-N-[[2-oxo-3-[3-fluoro-4-[1-(hydroxyacetyl)-4-piperidinyl]phenyl]-5-oxazolidinyl]methyl]acetamide]	10.6
CC(=O)NC[C@H]1CN(c2ccc(C3CCN(C(=O)COCc4ccccc4)CC3)c(F)c2)C(=O)O1 [Example 21, (S)-(−)-N-[[3-[4-[1-[(Benzyloxy)acetyl]-4-piperidinyl]-3-fluorophenyl]-2-oxo-5-oxazolidinyl]methyl]acetamide]	> 20
CC(=O)NC[C@H]1CN(c2ccc(C3CCN(C=O)CC3)c(F)c2)C(=O)O1 [Example 29, (S)-(−)-N-[[3-[4-[1-(Formyl)-4-piperidinyl]-3-fluorophenyl]-2-oxo-5-oxazolidinyl]methyl]acetamide]	5
CC(=O)NC[C@H]1CN(c2ccc(C3CCN(C(=O)CO)CC3)cc2)C(=O)O1 [Example 19, (S)-(−)-N-[[3-[4-[1-(Hydroxyacetyl)-4-piperidinyl]phenyl]-2-oxo-5-oxazolidinyl]methyl]acetamide]	6.8

same assay, conditions: Table 2; female mice; treatment 1 h and 5 h after infection, oral intubation or subcutaneous; survival over six days; probit analysis of mortality ratios

SMILES	ED50 [mg/kg]
CC(=O)NC[C@H]1CN(c2ccc(C3=CCS(=O)(=O)CC3)c(F)c2)C(=O)O1 [Example 50, (S)-(−)-N-[[3-[4-(3,6-Dihydro-2H-thiopyran-4-yl)-3-fluoropheny]-2-oxo-5-oxazolidinyl]methyl]acetamide S,S-dioxide]	2.20
COC(=O)N1CCC(c2ccc(N3C[C@H](CNC(C)=O)OC3=O)cc2F)C1 (stereo partly drawn) [Example 46, (5S)-3-[4-[5-[(Acetylamino)methyl]-2-oxo-3-oxazolidinyl]-2-fluoropheny]-1-pyrrolidinecarboxylic acid methyl ester]	7.90
CC(=O)NC[C@H]1CN(c2ccc(C3CCOCC3)c(F)c2)C(=O)O1 [Example 48, (S)-(−)-N-[[3-[4-[Tetrahydro-2H-pyran-4-yl]-3-fluoropheny]-2-oxo-5-oxazolidinyl]methyl]acetamide]	17.50
CC(=O)NC[C@H]1CN(c2ccc(C3=CC[S+]([O-])CC3)cc2)C(=O)O1 (stereo partly drawn) [Example 64, (S)-(−)-N-[[3-[4-(3 6-Dihydro-2H-thiopyran-4-yl)phenyl]-2-oxo-5-oxazolidinyl]methyl]acetamide S-oxide]	4.60
CC(=O)NC[C@H]1CN(c2ccc(C3=CCSCC3)c(F)c2)C(=O)O1 [Example 49, (S)-(−)-N-[[3-[4-(3,6-Dihydro-2H-thiopyran-4-yl)-3-fluoropheny]-2-oxo-5-oxazolidinyl]methyl]acetamide]	2.40
CC(=O)NC[C@H]1CN(c2ccc(C3=CCS(=O)(=O)CC3)cc2)C(=O)O1 [Example 55, (S)-(−)-N-[[3-[4-(3,6-Dihydro-2H-thiopyran-4-yl)phenyl]-2-oxo-5-oxazolidinyl]methyl]acetamide S,S-dioxide]	2.30
CC(=O)NC[C@H]1CN(c2ccc(C3=CCCN(C(=O)CO)C3)c(F)c2)C(=O)O1 [Example 71, (S)-N-[[3-[4-[1-(Hydroxyacetyl)-5,6-dihydro-2H-pyridin-3yl]-3-fluoropheny]-2-oxo-5-oxazolidinyl]methyl]acetamide]	13.4
CC(=O)NC[C@H]1CN(c2ccc(C3=CC[S+]([O-])CC3)c(F)c2)C(=O)O1 (stereo partly drawn) [Example 63, (S)-(−)-N-[[3-[4-(3,6-Dihydro-2H-thiopyran-4-yl)-3-fluoropheny]-2-oxo-5-oxazolidinyl]methyl]acetamide S-oxide]	4.90
CC(=O)NC[C@H]1CN(c2ccc(C3CCS(=O)(=O)CC3)c(F)c2)C(=O)O1 [Example 51, (S)-(−)-N-[[3-[3-Fluoro-4-(tetrahydro-2H-thiopyran-4-yl)phenyl]-2-oxo-5-oxazolidinyl]methyl]acetamide S,S-dioxide]	2.80

same assay, conditions: Table 2; female mice; treatment 1 h and 5 h after infection, oral intubation or subcutaneous; survival over six days; probit analysis of mortality ratios; read-out: ED50

SMILES	ED50 [mg/kg]
CC(=O)NC[C@H]1CN(c2ccc(C3=CCOCC3)cc2)C(=O)O1 [Example 52, (S)-(−)-N-[[3-[4-(3,6-Dihydro-2H-pyran-4-yl)phenyl]-2-oxo-5-oxazolidinyl]methyl]acetamide]	4
CC(=O)NC[C@H]1CN(c2ccc(C3=CCN(C=O)CC3)cc2)C(=O)O1 [Example 61, (S)-(−)-N-[[3-[4-[1-(Formyl)-3,6-dihydro-2H-pyridin-4-yl]phenyl]-2-oxo-5-oxazolidinyl]methyl]acetamide]	6.1
CC(=O)NC[C@H]1CN(c2ccc(C3=CCN(C(=O)CO)CC3)cc2)C(=O)O1 [Example 60, (S)-(−)-N-[[3-[4-[1-(Hydroxyacetyl)-3,6-dihydro-2H-pyridin-4-yl]phenyl]-2-oxo-5-oxazolidinyl]methyl]acetamide]	3.1
CC(=O)NC[C@H]1CN(c2ccc(C3=CCN(C(=O)CO)CCC3)c(F)c2)C(=O)O1 [Example 76, (S)-(−)-N-[[3-[4-[1-(Hydroxyacetyl)-2,3,4,7-tetrahydro-1H-azepin-5-yl]-3-fluorophenyl]-2-oxo-5-oxazolidinyl]methyl]acetamide]	> 20
CC(=O)NC[C@H]1CN(c2ccc(C3=CCSCC3)cc2)C(=O)O1 [Example 54, (S)-(−)-N-[[3-[4-(3,6-Dihydro-2H-thiopyran-4-yl)phenyl]-2-oxo-5-oxazolidinyl]methyl]acetamide]	6.6
CC(=O)NC[C@H]1CN(c2ccc(C3=CCCN(C(=O)CO)CC3)c(F)c2)C(=O)O1 [Example 78, (S)-(−)-N-[[3-[4-[1-(Hydroxyacetyl)-2,3,6,7-tetrahydro-1H-azepin-4-yl]-3-fluorophenyl]-2-oxo-5-oxazolidinyl]methyl]acetamide]	6

— patent publication US6358942B1, “Phenyloxazolidinones having a c-c bond 4-8 membered heterocyclic rings” (Pharmacia & Upjohn Company, priority 1995, dated 2002)
